Tested on: Caco-2 cells
Assay: Caco-2 cell uptake assay of valsartan with Mrp2/P-gp inhibitors and irradiation
Conditions: valsartan 10 μM, 5 Gy X-ray 24 h before

CCCCC(=O)N(Cc1ccc(-c2ccccc2-c2nnn[nH]2)cc1)[C@H](C(=O)O)C(C)C [valsartan, Valsartan]
valsartan uptake in Caco-2 cells, IR group compared with control group (1 h, p < 0.05): significant reduction | valsartan uptake in Caco-2 cells, IR group compared with control group (2 h): no significant difference
